From PMC3492916 (Molecular Nutrition & Food Research, 2011)
Entries after “also recorded” stand apart in the source; their conditions may differ.

Assays:
PBCEC [1] = test: Fluorescence microscopy of occludin and cell nuclei; format: cell-based, porcine; conditions: 10 μM a/b, 24 h
PBCEC monolayer = test: TEER measurement; format: cell-based, porcine; conditions: for Influence on barrier integrity (TEER): 10 μM (a) or 10 μM (a/b), in comparison to the control
[2] = Active transport study, equal concentrations in both compartments; conditions: pig, PBCEC monolayers
PBCEC monolayers [3] = test: as above; conditions: for Enrichment of substance concentration in one compartment: ET 10 μM, EC 1 μM a/b, over 48 h
PBCEC [4] = test: Cytotoxicity; format: cell-based, porcine; conditions: 24 h; for Impact on cell viability (CCK-8 assay): up to a concentration of 20 mM (so in the source), with corresponding -inine form
[5] = Permeability across PBCEC monolayers on Transwell filters; conditions: pig
PBCEC monolayers [6] = test: as above; conditions: apical addition; for Time of maximum of permeation into basolateral compartment / Maximum of permeation into basolateral compartment: EM and ET 10 μM, EC 1 μM; for Maximum of permeation into basolateral compartment: t = 0 h as 100%
P-glycoprotein = P-glycoprotein (Sus scrofa, UniProt K7GMM7); test: Active transport study with inhibitor PSC 833; format: in vitro ADME, porcine
P-glycoprotein, sequence (K7GMM7 1-1248): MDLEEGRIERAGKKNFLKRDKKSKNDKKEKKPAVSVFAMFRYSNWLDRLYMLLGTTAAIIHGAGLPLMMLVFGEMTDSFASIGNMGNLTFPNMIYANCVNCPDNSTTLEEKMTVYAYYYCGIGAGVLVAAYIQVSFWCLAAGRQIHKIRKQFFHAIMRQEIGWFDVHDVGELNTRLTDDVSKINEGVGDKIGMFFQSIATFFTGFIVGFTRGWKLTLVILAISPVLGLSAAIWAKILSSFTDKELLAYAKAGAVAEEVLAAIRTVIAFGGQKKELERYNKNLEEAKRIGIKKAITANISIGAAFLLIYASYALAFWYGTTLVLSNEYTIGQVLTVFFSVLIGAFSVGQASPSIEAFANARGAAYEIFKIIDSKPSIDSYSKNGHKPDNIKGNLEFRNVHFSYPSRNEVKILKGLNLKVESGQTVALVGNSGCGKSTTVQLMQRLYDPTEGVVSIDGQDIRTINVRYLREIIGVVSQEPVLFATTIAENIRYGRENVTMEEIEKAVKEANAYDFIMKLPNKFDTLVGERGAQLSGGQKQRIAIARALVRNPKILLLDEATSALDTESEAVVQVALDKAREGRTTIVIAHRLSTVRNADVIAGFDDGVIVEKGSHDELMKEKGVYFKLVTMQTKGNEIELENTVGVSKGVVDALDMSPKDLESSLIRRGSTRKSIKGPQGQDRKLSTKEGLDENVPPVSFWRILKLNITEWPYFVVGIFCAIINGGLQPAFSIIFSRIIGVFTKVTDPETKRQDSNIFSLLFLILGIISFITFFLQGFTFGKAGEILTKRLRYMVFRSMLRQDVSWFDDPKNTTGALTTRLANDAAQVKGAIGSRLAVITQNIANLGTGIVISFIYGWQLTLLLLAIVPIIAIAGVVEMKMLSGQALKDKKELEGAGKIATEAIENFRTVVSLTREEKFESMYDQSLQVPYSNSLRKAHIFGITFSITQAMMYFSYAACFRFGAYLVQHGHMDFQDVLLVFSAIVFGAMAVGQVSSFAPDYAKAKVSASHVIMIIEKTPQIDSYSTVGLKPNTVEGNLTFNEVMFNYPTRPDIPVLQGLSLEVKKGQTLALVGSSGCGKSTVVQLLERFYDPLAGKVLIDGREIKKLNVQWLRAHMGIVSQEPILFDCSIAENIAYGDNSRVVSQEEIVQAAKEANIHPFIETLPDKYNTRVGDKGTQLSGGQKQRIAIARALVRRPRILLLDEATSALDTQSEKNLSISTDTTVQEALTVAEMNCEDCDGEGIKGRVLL

BCRP/ABCG2 = molecular target: T1, BCRP/ABCG2 (Sus scrofa, UniProt Q8MIB3); test: Active transport study with inhibitor Fumitremorgin C; format: in vitro ADME, porcine
T1 sequence (Q8MIB3 1-656): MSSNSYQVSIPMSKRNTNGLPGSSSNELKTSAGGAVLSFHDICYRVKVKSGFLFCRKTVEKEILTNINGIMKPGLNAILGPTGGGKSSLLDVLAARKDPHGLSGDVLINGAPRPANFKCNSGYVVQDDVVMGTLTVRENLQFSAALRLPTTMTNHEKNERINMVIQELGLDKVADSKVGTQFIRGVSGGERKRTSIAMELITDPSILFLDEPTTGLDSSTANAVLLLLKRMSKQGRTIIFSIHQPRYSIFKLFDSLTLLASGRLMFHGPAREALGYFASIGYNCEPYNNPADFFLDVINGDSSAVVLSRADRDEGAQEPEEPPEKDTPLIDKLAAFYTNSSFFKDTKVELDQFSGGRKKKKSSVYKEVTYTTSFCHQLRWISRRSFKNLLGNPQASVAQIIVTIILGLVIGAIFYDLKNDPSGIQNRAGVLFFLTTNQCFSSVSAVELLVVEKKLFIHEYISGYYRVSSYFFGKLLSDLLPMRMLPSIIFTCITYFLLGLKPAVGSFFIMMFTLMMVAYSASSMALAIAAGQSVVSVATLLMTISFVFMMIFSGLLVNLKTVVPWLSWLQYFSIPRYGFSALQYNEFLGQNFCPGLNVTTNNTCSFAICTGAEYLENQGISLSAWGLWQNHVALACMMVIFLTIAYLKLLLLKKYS

Pgp = conditions: cited from earlier work
[7] = cited from earlier work
Caco-2 = Caco-2 model, after 6 h; cited from earlier work
[8] = 10 μM inhibitor a/b, preincubated 1 h, EM 10 μM a/b

CC(C)[C@@]1(NC(=O)[C@@H]2C=C3c4cccc5[nH]cc(c45)C[C@H]3N(C)C2)O[C@@]2(O)[C@@H]3CCCN3C(=O)[C@H](Cc3ccccc3)N2C1=O [EC, ergocristine]
Immunostaining of occludin and cell nuclei (PBCEC [1]): disrupted cells could be visualized by the absence of nuclei | Effect on barrier integrity (TEER) (PBCEC monolayer; 1 μM (a)): no effect | TEER, % of initial TEER (PBCEC monolayer; 1 μM (a/b)): about 80% | TEER, % of initial TEER (PBCEC monolayer; 5 μM (a)): about 80% | TEER, % of the starting value (PBCEC monolayer; 5 μM (a/b)): 50–70% | TEER, % of the starting value (PBCEC monolayer; 5 μM (b)): 50–70% | TEER, % of the starting value (PBCEC monolayer; 10 μM (a)): 50–70% | TEER, % of the starting value (PBCEC monolayer; 10 μM (b)): 50–70% | TEER of incubated samples (PBCEC monolayer; 10 mM (so in the source) a/b, 24 h, samples of immunostaining, control >1000): < 200 Ωcm^2 | recovery at 48 h, 1 µM [2]: 60% | Enrichment of substance concentration in one compartment (PBCEC monolayers [3]): no enrichment | Concentration at which significant differences in cell viability start (PBCEC [4]; CCK-8): 5 µM | Concentration at which significant results in cell viability start (PBCEC [4]; CCK-8, Figure 2 legend): 5000 µM | Cell viability (CCK-8 assay) (PBCEC [4]; from 5 μM, in equilibrium with -inine form): 85 % of the control | Papp A→B [5]: 20.5 ×10⁻⁶ cm/s | Papp B→A [5]: 26.1 ×10⁻⁶ cm/s | Concentration in basolateral compartment (PBCEC monolayers [6]; 1 μM, after 24 h): 32% | Time of maximum of permeation into basolateral compartment (PBCEC monolayers [6]): 6 h | Maximum of permeation into basolateral compartment (PBCEC monolayers [6]): 49%

C[C@@H](CO)NC(=O)[C@@H]1C=C2c3cccc4[nH]cc(c34)C[C@H]2N(C)C1 [EM, ergometrine]
Influence on barrier integrity (TEER) (PBCEC monolayer; 1 μM (a), 24 h): No influence; also recorded: no impact on barrier integrity | Concentration in apical compartment, % of the initial concentration (PBCEC monolayers [3]; 10 μM a/b, after 24 h): about 117% | Total enrichment in apical compartment (PBCEC monolayers [3]; 10 μM a/b, after 48 h): 130% | Substance in cell lysate (PBCEC monolayers [3]; 10 μM a/b, during the whole experiment (48 h)): no EM was detectable in cell lysate | Impact on cell viability (CCK-8 assay) (PBCEC [4]): no impact | Concentration in apical compartment, % of the initial concentration (P-glycoprotein; EM 10 μM a/b with PSC 833 10 μM a/b, after 48 h): 110% | Transporter substrate property (BCRP/ABCG2; concluded from total inhibition by FTC): substrate for BCRP/ABCG2 transporter | Pgp inhibition (Pgp): Pgp inhibitors | Papp A→B [5]: 1.05 ×10⁻⁶ cm/s | Papp B→A [5]: 6.05 ×10⁻⁶ cm/s | Time before which first traces were not detectable in basolateral compartment (PBCEC monolayers [6]; 10 μM): ≥ 6 h | Time of maximum of permeation into basolateral compartment (PBCEC monolayers [6]): 24 h | Maximum of permeation into basolateral compartment (PBCEC monolayers [6]): 29%

CN1C[C@H](C(=O)N[C@]2(C)O[C@@]3(O)[C@@H]4CCCN4C(=O)[C@H](Cc4ccccc4)N3C2=O)C=C2c3cccc4[nH]cc(c34)C[C@H]21 [ET, ergotamine]
Influence on barrier integrity (TEER) (PBCEC monolayer; 1 μM (a), 24 h): No influence; also recorded: no impact on barrier integrity | Detection in CSF ([7]; 18 patients, different application methods): no ergotamine in CSF | Oral bioavailability ([7]; humans, peptide ergot alkaloids like ergotamine): less than 2% | Concentration in cerebrospinal fluid (CSF) ([7]; ten patients): 0.4 ng/mL | Enrichment of substance concentration in one compartment (PBCEC monolayers [3]): no enrichment | Impact on cell viability (CCK-8 assay) (PBCEC [4]): no impact | Pgp inhibition (Pgp): Pgp inhibitors | Papp A→B [5]: 11.9 ×10⁻⁶ cm/s | Papp B→A [5]: 18 ×10⁻⁶ cm/s | efflux ratio at 24 h, 10 μM [5]: < 2 | Time of maximum of permeation into basolateral compartment (PBCEC monolayers [6]): 12 h | Maximum of permeation into basolateral compartment (PBCEC monolayers [6]): 40%

COc1ccc2c3c([nH]c2c1)[C@H](C=C(C)C)N1C(=O)[C@@H]2CCCN2C(=O)[C@@H]1C3 [FTC, Fumitremorgin C]
Influence of inhibitor on the transport of EM (BCRP/ABCG2; [8]): total inhibition of the transport process

C/C=C/C[C@@H](C)C(=O)[C@H]1C(=O)N[C@@H](C(C)C)C(=O)N(C)CC(=O)N(C)[C@@H](CC(C)C)C(=O)N[C@@H](C(C)C)C(=O)N(C)[C@@H](CC(C)C)C(=O)N[C@@H](C)C(=O)N[C@H](C)C(=O)N(C)[C@@H](CC(C)C)C(=O)N(C)[C@@H](CC(C)C)C(=O)N(C)[C@@H](C(C)C)C(=O)N1C [PSC, PSC 833]
Influence of inhibitor on the transport of EM (P-glycoprotein; [8]): lagging of enrichment in the apical compartment

ergovaline/ ergovalinine
Initial concentration reaching the other compartment (Caco-2): 40%
